Earlier results in article PMC12181400, “Leveraging viral genome sequences and machine learning models for identification of potentially selective antiviral agents” (Communications Chemistry, 2025).
Structures can show the parent of a compound that is named as a salt. Where two headings read alike, the source gives them in different places.

Experiments:
Conditions in all cases: cited from earlier work
[1] = system: cell viability (tox21-ap1-agonist-p1)
[2] = system: cell viability (tox21-ar-mda-kb2-luc-antagonist-p2)
[3] = system: cell viability (tox21-car-agonist-p1)
[4] = system: cell viability (tox21-ar-mda-kb2-luc-agonist-p3)
[5] = system: cell viability (tox21-are-bla-p1)
[6] = system: cell viability (tox21-car-antagonist-p1)
[7] = curve rank −9 to 9, 0 = inactive, ref NCATS Tox21 public data browser

C#CCN(C)[C@H](C)Cc1ccccc1 [Selegiline hydrochloride]
0: tox21-ap1-agonist-p1-viability (curve rank) [1, 7] | tox21-ar-mda-kb2-luc-antagonist-p2-viability (curve rank) [2, 7] | tox21-car-agonist-p1-viability (curve rank) [3, 7] | tox21-ar-mda-kb2-luc-agonist-p3-viability (curve rank) [4, 7] | tox21-are-bla-p1-viability (curve rank) [5, 7] | tox21-car-antagonist-p1-viability (curve rank) [6, 7]

C=CCNC(N)=S [Allylthiourea]
0: tox21-ap1-agonist-p1-viability (curve rank) [1, 7] | tox21-ar-mda-kb2-luc-antagonist-p2-viability (curve rank) [2, 7] | tox21-car-agonist-p1-viability (curve rank) [3, 7] | tox21-ar-mda-kb2-luc-agonist-p3-viability (curve rank) [4, 7] | tox21-are-bla-p1-viability (curve rank) [5, 7] | tox21-car-antagonist-p1-viability (curve rank) [6, 7]

CC[C@]12CCCN3CCc4c(n(c5ccccc45)[C@@](O)(C(=O)OC)C1)[C@@H]32 [Vincamine]
0: tox21-ap1-agonist-p1-viability (curve rank) [1, 7] | tox21-ar-mda-kb2-luc-antagonist-p2-viability (curve rank) [2, 7] | tox21-car-agonist-p1-viability (curve rank) [3, 7] | tox21-ar-mda-kb2-luc-agonist-p3-viability (curve rank) [4, 7] | tox21-are-bla-p1-viability (curve rank) [5, 7] | tox21-car-antagonist-p1-viability (curve rank) [6, 7]

CCOc1ccc(NC(C)=O)cc1 [Phenacetin]
0: tox21-ap1-agonist-p1-viability (curve rank) [1] | tox21-ar-mda-kb2-luc-antagonist-p2-viability (curve rank) [2] | tox21-car-agonist-p1-viability (curve rank) [3] | tox21-ar-mda-kb2-luc-agonist-p3-viability (curve rank) [4] | tox21-are-bla-p1-viability (curve rank) [5] | tox21-car-antagonist-p1-viability (curve rank) [6]

O=C(O)COc1ccccc1 [Phenoxyacetic acid]
0: tox21-ap1-agonist-p1-viability (curve rank) [1, 7] | tox21-ar-mda-kb2-luc-antagonist-p2-viability (curve rank) [2, 7] | tox21-car-agonist-p1-viability (curve rank) [3, 7] | tox21-ar-mda-kb2-luc-agonist-p3-viability (curve rank) [4, 7] | tox21-are-bla-p1-viability (curve rank) [5, 7] | tox21-car-antagonist-p1-viability (curve rank) [6, 7]

Nc1cc(N2CCCCC2)nc(N)[n+]1[O-] [Minoxidil]
0: tox21-ap1-agonist-p1-viability (curve rank) [1] | tox21-ar-mda-kb2-luc-antagonist-p2-viability (curve rank) [2] | tox21-car-agonist-p1-viability (curve rank) [3] | tox21-ar-mda-kb2-luc-agonist-p3-viability (curve rank) [4] | tox21-are-bla-p1-viability (curve rank) [5] | tox21-car-antagonist-p1-viability (curve rank) [6]

CC(O)Cn1cnc2c1c(=O)n(C)c(=O)n2C (stereo not drawn) [Proxyphylline]
0: tox21-ap1-agonist-p1-viability (curve rank) [1] | tox21-ar-mda-kb2-luc-antagonist-p2-viability (curve rank) [2] | tox21-car-agonist-p1-viability (curve rank) [3] | tox21-ar-mda-kb2-luc-agonist-p3-viability (curve rank) [4] | tox21-are-bla-p1-viability (curve rank) [5] | tox21-car-antagonist-p1-viability (curve rank) [6]

CCN(CC)CCOC(=O)C(c1ccccc1)c1ccccc1 [Adiphenine hydrochloride]
0: tox21-ap1-agonist-p1-viability (curve rank) [1] | tox21-ar-mda-kb2-luc-antagonist-p2-viability (curve rank) [2] | tox21-car-agonist-p1-viability (curve rank) [3] | tox21-ar-mda-kb2-luc-agonist-p3-viability (curve rank) [4] | tox21-are-bla-p1-viability (curve rank) [5] | tox21-car-antagonist-p1-viability (curve rank) [6]

C[C@]12CCC(=O)C=C1CC[C@@H]1[C@@H]2[C@@H](O)C[C@@]2(C)[C@H]1CC[C@]2(O)C(=O)CO [Hydrocortisone]
0: tox21-ap1-agonist-p1-viability (curve rank) [1] | tox21-ar-mda-kb2-luc-antagonist-p2-viability (curve rank) [2] | tox21-car-agonist-p1-viability (curve rank) [3] | tox21-ar-mda-kb2-luc-agonist-p3-viability (curve rank) [4] | tox21-are-bla-p1-viability (curve rank) [5] | tox21-car-antagonist-p1-viability (curve rank) [6]

CC(=O)Nc1nnc(S(N)(=O)=O)s1 [Acetazolamide]
0: tox21-ap1-agonist-p1-viability (curve rank) [1] | tox21-ar-mda-kb2-luc-antagonist-p2-viability (curve rank) [2] | tox21-car-agonist-p1-viability (curve rank) [3] | tox21-ar-mda-kb2-luc-agonist-p3-viability (curve rank) [4] | tox21-are-bla-p1-viability (curve rank) [5] | tox21-car-antagonist-p1-viability (curve rank) [6]

CC(N/C(=N\C#N)Nc1ccncc1)C(C)(C)C (stereo not drawn) [Pinacidil monohydrate]
0: tox21-ap1-agonist-p1-viability (curve rank) [1] | tox21-ar-mda-kb2-luc-antagonist-p2-viability (curve rank) [2] | tox21-car-agonist-p1-viability (curve rank) [3] | tox21-ar-mda-kb2-luc-agonist-p3-viability (curve rank) [4] | tox21-are-bla-p1-viability (curve rank) [5] | tox21-car-antagonist-p1-viability (curve rank) [6]

c1ccc2c(CC3=NCCN3)cccc2c1 [Naphazoline hydrochloride]
0: tox21-ap1-agonist-p1-viability (curve rank) [1] | tox21-ar-mda-kb2-luc-antagonist-p2-viability (curve rank) [2] | tox21-car-agonist-p1-viability (curve rank) [3] | tox21-ar-mda-kb2-luc-agonist-p3-viability (curve rank) [4] | tox21-are-bla-p1-viability (curve rank) [5] | tox21-car-antagonist-p1-viability (curve rank) [6]

OC[C@H]1O[C@@H](Oc2ccc(O)cc2)[C@H](O)[C@@H](O)[C@@H]1O [Arbutin]
0: tox21-ap1-agonist-p1-viability (curve rank) [1, 7] | tox21-ar-mda-kb2-luc-antagonist-p2-viability (curve rank) [2, 7] | tox21-car-agonist-p1-viability (curve rank) [3, 7] | tox21-ar-mda-kb2-luc-agonist-p3-viability (curve rank) [4, 7] | tox21-are-bla-p1-viability (curve rank) [5, 7] | tox21-car-antagonist-p1-viability (curve rank) [6, 7]

CC(=O)Nc1ccccc1 [Acetanilide]
0: tox21-ap1-agonist-p1-viability (curve rank) [1] | tox21-ar-mda-kb2-luc-antagonist-p2-viability (curve rank) [2] | tox21-car-agonist-p1-viability (curve rank) [3] | tox21-ar-mda-kb2-luc-agonist-p3-viability (curve rank) [4] | tox21-are-bla-p1-viability (curve rank) [5] | tox21-car-antagonist-p1-viability (curve rank) [6]

CCN1CCC[C@H]1CNC(=O)c1c(OC)ccc(Br)c1OC [Remoxipride]
0: tox21-ap1-agonist-p1-viability (curve rank) [1] | tox21-ar-mda-kb2-luc-antagonist-p2-viability (curve rank) [2] | tox21-car-agonist-p1-viability (curve rank) [3] | tox21-ar-mda-kb2-luc-agonist-p3-viability (curve rank) [4] | tox21-are-bla-p1-viability (curve rank) [5] | tox21-car-antagonist-p1-viability (curve rank) [6]

O=C1NS(=O)(=O)c2ccccc21 [Saccharin]
0: tox21-ap1-agonist-p1-viability (curve rank) [1] | tox21-ar-mda-kb2-luc-antagonist-p2-viability (curve rank) [2] | tox21-car-agonist-p1-viability (curve rank) [3] | tox21-ar-mda-kb2-luc-agonist-p3-viability (curve rank) [4] | tox21-are-bla-p1-viability (curve rank) [5] | tox21-car-antagonist-p1-viability (curve rank) [6]

O=C1c2ccccc2S(=O)(=O)N1CCCCN1CCN(c2ncccn2)CC1 [Ipsapirone]
0: tox21-ap1-agonist-p1-viability (curve rank) [1] | tox21-ar-mda-kb2-luc-antagonist-p2-viability (curve rank) [2] | tox21-car-agonist-p1-viability (curve rank) [3] | tox21-ar-mda-kb2-luc-agonist-p3-viability (curve rank) [4] | tox21-are-bla-p1-viability (curve rank) [5] | tox21-car-antagonist-p1-viability (curve rank) [6]

CCn1cc(C(=O)O)c(=O)c2cnc(N3CCNCC3)nc21 [Pipemidic acid]
0: tox21-ap1-agonist-p1-viability (curve rank) [1] | tox21-ar-mda-kb2-luc-antagonist-p2-viability (curve rank) [2] | tox21-car-agonist-p1-viability (curve rank) [3] | tox21-ar-mda-kb2-luc-agonist-p3-viability (curve rank) [4] | tox21-are-bla-p1-viability (curve rank) [5] | tox21-car-antagonist-p1-viability (curve rank) [6]

Cc1ncsc1CCCl [Clomethiazole]
0: tox21-ap1-agonist-p1-viability (curve rank) [1, 7] | tox21-ar-mda-kb2-luc-antagonist-p2-viability (curve rank) [2, 7] | tox21-car-agonist-p1-viability (curve rank) [3, 7] | tox21-ar-mda-kb2-luc-agonist-p3-viability (curve rank) [4, 7] | tox21-are-bla-p1-viability (curve rank) [5, 7] | tox21-car-antagonist-p1-viability (curve rank) [6, 7]

COC(=O)[C@H](c1ccccc1Cl)N1CCc2sccc2C1 [Clopidogrel bisulfate]
0: tox21-ap1-agonist-p1-viability (curve rank) [1] | tox21-ar-mda-kb2-luc-antagonist-p2-viability (curve rank) [2] | tox21-car-agonist-p1-viability (curve rank) [3] | tox21-ar-mda-kb2-luc-agonist-p3-viability (curve rank) [4] | tox21-are-bla-p1-viability (curve rank) [5] | tox21-car-antagonist-p1-viability (curve rank) [6]

Nc1nc2ncc(CNc3ccc(C(=O)N[C@@H](CCC(=O)O)C(=O)O)cc3)nc2c(=O)[nH]1 [Folic acid]
0: tox21-ap1-agonist-p1-viability (curve rank) [1] | tox21-ar-mda-kb2-luc-antagonist-p2-viability (curve rank) [2] | tox21-car-agonist-p1-viability (curve rank) [3] | tox21-ar-mda-kb2-luc-agonist-p3-viability (curve rank) [4] | tox21-are-bla-p1-viability (curve rank) [5] | tox21-car-antagonist-p1-viability (curve rank) [6]

CN1C(C(=O)Nc2ccccn2)=C(O)c2ccccc2S1(=O)=O [Piroxicam]
0: tox21-ap1-agonist-p1-viability (curve rank) [1] | tox21-ar-mda-kb2-luc-antagonist-p2-viability (curve rank) [2] | tox21-car-agonist-p1-viability (curve rank) [3] | tox21-ar-mda-kb2-luc-agonist-p3-viability (curve rank) [4] | tox21-are-bla-p1-viability (curve rank) [5] | tox21-car-antagonist-p1-viability (curve rank) [6]

CC1(C)Oc2ccc(C#N)cc2[C@@H](N2CCCC2=O)[C@@H]1O [Levcromakalim]
0: tox21-ap1-agonist-p1-viability (curve rank) [1] | tox21-ar-mda-kb2-luc-antagonist-p2-viability (curve rank) [2] | tox21-car-agonist-p1-viability (curve rank) [3] | tox21-ar-mda-kb2-luc-agonist-p3-viability (curve rank) [4] | tox21-are-bla-p1-viability (curve rank) [5] | tox21-car-antagonist-p1-viability (curve rank) [6]
